Laboratory results from paper PMC4741798, “Imaging of carbonic anhydrase IX with an ^111In-labeled dual-motif inhibitor” (Oncotarget, 2015).
“And” between values parts separate entries of the source, which are not always exact repeats. Identical values can stand only once.

Test system: SK-RC-52 xenografts
Test: Biodistribution in mice bearing SK-RC-52 xenografts
Assay type: in vivo
Details: for Tumor/blood ratio / Tumor/kid (kidney) ratio / Tumor/mm (muscle) ratio / Biodistribution: Tumor / Biodistribution: Bladder / Biodistribution: Blood / Biodistribution: Brain / Biodistribution: Fat / Biodistribution: Heart / Biodistribution: Kidney (kid) / Biodistribution: Liver / Biodistribution: Lung / Biodistribution: Muscle (mm) / Biodistribution: Pancreas / Biodistribution: Sm. intestine / Biodistribution: Spleen / Biodistribution: Stomach: n = 5; for Biodistribution: Tumor: SK-RC-52 tumor
Protocol: Mice bearing SK-RC-52 xenografts within the lower left flank were injected intravenously with 740 kBq (20 μCi) of [^111In]XYIMSR-01 in 200 μL of PBS. For in vivo competition (binding specificity) studies, tumor-bearing mice were injected with 740 kBq (20 μCi) of [^111In]XYIMSR-01 and 200 nmole of 1 in 200 μL of PBS concurrently. At 1 h, 4 h, 8 h, 24 h and 48 h post-injection, mice were sacrificed by cervical dislocation and the blood was immediately collected by cardiac puncture. Heart, lungs, pancreas, spleen, fat, brain, muscle, small intestines, liver, stomach, kidney, urinary bladder, and tumor were collected. Each organ was weighed and the tissue radioactivity was measured with an automated gamma counter (1282 Compugamma CS, Pharmacia/LKBNuclear, Inc., Mt. Waverly, Vic. Australia). The percentage of injected dose per gram of tissue (% ID/g) was calculated by comparison with samples of a standard dilution of the initial dose. All measurements were corrected for radioactive decay.
Data were expressed as mean ± standard deviation (SD). Prism software (GraphPAD, San Diego, California) was used to determine statistical significance. Statistical significance was calculated using a paired t test. P-values < 0.0001 were considered significant.

[1] = 24 h + Block (co-injected 200 nmole of 1)
[2] = 48 h + Block (co-injected 200 nmole of 1)
[3] = plateau followed by one phase decay fit of Table 1 data

CC(CCC(=O)N[C@@H](CC(=O)N[C@@H](CC(=O)N[C@@H](CCCCn1cc(CCCC(=O)Nc2nnc(S(N)(=O)=O)s2)nn1)C(=O)NCCOCCOCCNC(=O)CN1CCN(CC(=O)[O-])CCN(CC(=O)[O-])CCN(CC(=O)[O-])CC1)C(=O)O)C(=O)O)(c1ccc(O)cc1)c1ccc(O)cc1.[111In+3] [[^111In]XYIMSR-01]
Tumor/blood ratio [1]: 45.2 ± 9.7 | Tumor/kid (kidney) ratio [1]: 2.1 ± 0.3 | Tumor/mm (muscle) ratio [1]: 91.4 ± 11.1 | tumor/liver ratio (24 h post-injection): 8.5 | Biodistribution: Tumor (24 h post-injection, i.v.): 25.62 ± 17.67 %ID/g | Biodistribution: Bladder (24 h post-injection, i.v.): 0.74 ± 0.17 %ID/g | Biodistribution: Blood (24 h post-injection, i.v.): 0.15 ± 0.02 %ID/g | Biodistribution: Brain (24 h post-injection, i.v.): 0.71 ± 0.85 %ID/g | Biodistribution: Fat (24 h post-injection, i.v.): 0.28 ± 0.19 %ID/g | Biodistribution: Heart (24 h post-injection, i.v.): 1.16 ± 0.20 %ID/g | Biodistribution: Kidney (kid) (24 h post-injection, i.v.): 15.29 ± 1.69 %ID/g | Biodistribution: Liver (24 h post-injection, i.v.): 3.02 ± 3.46 %ID/g | Biodistribution: Lung (24 h post-injection, i.v.): 11.01 ± 3.71 %ID/g | Biodistribution: Muscle (mm) (24 h post-injection, i.v.): 0.35 ± 0.12 %ID/g | Biodistribution: Pancreas (24 h post-injection, i.v.): 0.69 ± 0.18 %ID/g | Biodistribution: Sm. intestine (24 h post-injection, i.v.): 2.11 ± 0.33 %ID/g | Biodistribution: Spleen (24 h post-injection, i.v.): 0.69 ± 0.39 %ID/g | Biodistribution: Stomach (24 h post-injection, i.v.): 3.31 ± 1.25 %ID/g | Tumor/blood ratio (24 h post-injection): 178 and 178.1 ± 145.4 | Tumor/kid (kidney) ratio (24 h post-injection): 1.7 and 1.7 ± 1.2 | Tumor/mm (muscle) ratio (24 h post-injection): 68 and 68.4 ± 29.0 | Biodistribution: Tumor [2]: 1 %ID/g and 1.22 ± 0.54 %ID/g | Biodistribution: Bladder [2]: 0.14 ± 0.03 %ID/g | Biodistribution: Blood [2]: 0.03 ± 0.00 %ID/g | Biodistribution: Fat [2]: 0.03 ± 0.01 %ID/g | Biodistribution: Heart [2]: 0.04 ± 0.01 %ID/g | Biodistribution: Kidney (kid) [2]: 0.45 ± 0.09 %ID/g | Biodistribution: Liver [2]: 0.13 ± 0.04 %ID/g | Biodistribution: Lung [2]: 0.09 ± 0.02 %ID/g | Biodistribution: Muscle (mm) [2]: 0.02 ± 0.00 %ID/g | Biodistribution: Pancreas [2]: 0.03 ± 0.01 %ID/g | Biodistribution: Sm. intestine [2]: 0.08 ± 0.02 %ID/g | Biodistribution: Spleen [2]: 0.11 ± 0.03 %ID/g | Biodistribution: Stomach [2]: 0.14 ± 0.03 %ID/g | Tumor/blood ratio [2]: 45.4 ± 13.8 | Tumor/kid (kidney) ratio [2]: 2.7 ± 0.8 | Tumor/mm (muscle) ratio [2]: 75.1 ± 17.7 | Biodistribution: Tumor (48 h post-injection, i.v.): 13.92 ± 6.67 %ID/g | Biodistribution: Bladder (48 h post-injection, i.v.): 0.38 ± 0.18 %ID/g | Biodistribution: Blood (48 h post-injection, i.v.): 0.06 ± 0.02 %ID/g | Biodistribution: Brain (48 h post-injection, i.v.): 0.41 ± 0.05 %ID/g | Biodistribution: Fat (48 h post-injection, i.v.): 0.25 ± 0.08 %ID/g | Biodistribution: Heart (48 h post-injection, i.v.): 0.84 ± 0.16 %ID/g | Biodistribution: Kidney (kid) (48 h post-injection, i.v.): 8.78 ± 1.89 %ID/g | Biodistribution: Liver (48 h post-injection, i.v.): 1.65 ± 0.26 %ID/g | Biodistribution: Lung (48 h post-injection, i.v.): 9.22 ± 1.25 %ID/g | Biodistribution: Muscle (mm) (48 h post-injection, i.v.): 0.39 ± 0.28 %ID/g | Biodistribution: Pancreas (48 h post-injection, i.v.): 0.59 ± 0.18 %ID/g | Biodistribution: Sm. intestine (48 h post-injection, i.v.): 1.22 ± 0.44 %ID/g | Biodistribution: Spleen (48 h post-injection, i.v.): 0.67 ± 0.13 %ID/g | Biodistribution: Stomach (48 h post-injection, i.v.): 1.82 ± 0.43 %ID/g | Tumor/blood ratio (48 h post-injection): 212.0 ± 41.4 | Tumor/kid (kidney) ratio (48 h post-injection): 1.5 ± 0.5 | Tumor/mm (muscle) ratio (48 h post-injection): 52.0 ± 21.0 | Calculated biological excretion half-life: Bladder [3]: 3.730 hr | Calculated biological excretion half-life: Blood [3]: 3.246 hr | Calculated biological excretion half-life: Brain [3]: 3.926 hr | Calculated biological excretion half-life: Fat [3]: 1.536 hr | Calculated biological excretion half-life: Heart [3]: 3.538 hr | Calculated biological excretion half-life: Kidney [3]: 4.344 hr | Calculated biological excretion half-life: Liver [3]: 4.243 hr | Calculated biological excretion half-life: Lung [3]: 5.602 hr | Calculated biological excretion half-life: Muscle [3]: 2.534 hr | Calculated biological excretion half-life: Pancreas [3]: 3.179 hr | Calculated biological excretion half-life: SK-RC-52 tumor [3]: 12.27 hr | Calculated biological excretion half-life: Small intestine [3]: 5.597 hr | Calculated biological excretion half-life: Stomach [3]: 3.908 hr
